Where “and” joins values, the source holds several entries; their conditions need not be identical. Equal entries are not always repeated. Peptide text beside a SMILES is read from it. * marks the point of attachment. Biotin = O=C1N[C@H]2[C@H](CS[C@H]2CCCCC(=O)*)N1
Assays:
[1] = target: HaloTag[22-297](M2F + K140E)-12xGly/Ser-LgBiT-3xGly/Ser-6xHis (Rhodococcus rhodochrous, UniProt P0A3G2, A155T/A167V/A172T/A224E/C128F/C176G/D78G/E257K/H272N/K175M/K195N/L47V/L88M/N227D/S58T/T264A/Y273L/Y87F); assay: biochemical; type: binding; conditions: KD, biotinylated peptide on streptavidin probes, PBST, 25° C.
Chain of HaloTag[22-297](M2F + K140E)-12xGly/Ser-LgBiT-3xGly/Ser-6xHis (P0A3G2 23-290 with tags or gaps with the stated changes): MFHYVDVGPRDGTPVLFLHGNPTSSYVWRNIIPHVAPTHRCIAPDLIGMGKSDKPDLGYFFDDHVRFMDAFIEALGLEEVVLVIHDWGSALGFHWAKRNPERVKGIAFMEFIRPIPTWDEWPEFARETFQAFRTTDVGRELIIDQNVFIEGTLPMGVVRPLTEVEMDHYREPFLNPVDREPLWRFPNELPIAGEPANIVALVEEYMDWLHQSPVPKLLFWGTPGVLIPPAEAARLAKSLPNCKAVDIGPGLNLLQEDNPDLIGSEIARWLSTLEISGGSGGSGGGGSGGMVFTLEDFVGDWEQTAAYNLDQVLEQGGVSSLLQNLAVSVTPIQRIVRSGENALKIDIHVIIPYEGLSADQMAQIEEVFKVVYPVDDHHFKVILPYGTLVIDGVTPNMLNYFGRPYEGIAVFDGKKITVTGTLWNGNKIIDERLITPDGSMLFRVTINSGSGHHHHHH

[2] = target: HaloTag[22-297](M2F + F148M + V177E)-12xGly/Ser-LgBiT-3xGly/Ser-6xHis (Rhodococcus rhodochrous, UniProt P0A3G2, A155T/A167V/A172T/A224E/C128F/C176G/D78G/E160K/E257K/F168M/H272N/K175M/K195N/L47V/L88M/N227D/S58T/T264A/V197E/Y273L/Y87F); assay: biochemical; type: binding
Chain of HaloTag[22-297](M2F + F148M + V177E)-12xGly/Ser-LgBiT-3xGly/Ser-6xHis (P0A3G2 23-290 with tags or gaps with the stated changes): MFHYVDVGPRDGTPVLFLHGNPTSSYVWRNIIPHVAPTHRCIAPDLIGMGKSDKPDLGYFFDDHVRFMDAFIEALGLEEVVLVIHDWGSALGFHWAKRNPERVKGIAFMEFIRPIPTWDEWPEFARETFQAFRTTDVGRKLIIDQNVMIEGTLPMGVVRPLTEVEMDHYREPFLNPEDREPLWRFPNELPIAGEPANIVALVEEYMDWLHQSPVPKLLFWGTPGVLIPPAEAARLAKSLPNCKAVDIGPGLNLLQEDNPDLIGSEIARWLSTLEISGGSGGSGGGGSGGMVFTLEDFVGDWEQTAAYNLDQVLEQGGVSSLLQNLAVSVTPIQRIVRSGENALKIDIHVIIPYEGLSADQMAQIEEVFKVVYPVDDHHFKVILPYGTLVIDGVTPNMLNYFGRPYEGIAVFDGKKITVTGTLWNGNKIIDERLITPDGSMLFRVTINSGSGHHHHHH

[3] = target: HaloTag[22-297](M2F)-12xGly/Ser-LgBiT-3xGly/Ser-6xHis (Rhodococcus rhodochrous, UniProt P0A3G2, A155T/A167V/A172T/A224E/C128F/C176G/D78G/E160K/E257K/H272N/K175M/K195N/L47V/L88M/N227D/S58T/T264A/Y273L/Y87F); assay: biochemical; type: binding
Chain of HaloTag[22-297](M2F)-12xGly/Ser-LgBiT-3xGly/Ser-6xHis (P0A3G2 23-290 with tags or gaps with the stated changes): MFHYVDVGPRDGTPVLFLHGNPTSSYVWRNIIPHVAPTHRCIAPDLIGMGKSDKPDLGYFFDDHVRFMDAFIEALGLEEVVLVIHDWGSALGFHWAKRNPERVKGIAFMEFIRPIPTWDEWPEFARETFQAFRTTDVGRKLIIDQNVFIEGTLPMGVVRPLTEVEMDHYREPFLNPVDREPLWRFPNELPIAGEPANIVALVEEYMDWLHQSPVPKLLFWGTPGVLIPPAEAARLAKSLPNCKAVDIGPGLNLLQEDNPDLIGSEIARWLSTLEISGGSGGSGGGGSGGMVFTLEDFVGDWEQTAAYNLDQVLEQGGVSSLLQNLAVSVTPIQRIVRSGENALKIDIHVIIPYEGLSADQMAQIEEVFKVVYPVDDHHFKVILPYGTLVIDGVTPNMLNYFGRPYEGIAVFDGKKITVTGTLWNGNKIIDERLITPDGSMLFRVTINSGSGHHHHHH

[4] = target: HaloTag[22-297](M2F + D53G + V177E)-12xGly/Ser-LgBiT-3xGly/Ser-6xHis (Rhodococcus rhodochrous, UniProt P0A3G2, A155T/A167V/A172T/A224E/C128F/C176G/D73G/D78G/E160K/E257K/H272N/K175M/K195N/L47V/L88M/N227D/S58T/T264A/V197E/Y273L/Y87F); assay: biochemical; type: binding
Chain of HaloTag[22-297](M2F + D53G + V177E)-12xGly/Ser-LgBiT-3xGly/Ser-6xHis (P0A3G2 23-290 with tags or gaps with the stated changes): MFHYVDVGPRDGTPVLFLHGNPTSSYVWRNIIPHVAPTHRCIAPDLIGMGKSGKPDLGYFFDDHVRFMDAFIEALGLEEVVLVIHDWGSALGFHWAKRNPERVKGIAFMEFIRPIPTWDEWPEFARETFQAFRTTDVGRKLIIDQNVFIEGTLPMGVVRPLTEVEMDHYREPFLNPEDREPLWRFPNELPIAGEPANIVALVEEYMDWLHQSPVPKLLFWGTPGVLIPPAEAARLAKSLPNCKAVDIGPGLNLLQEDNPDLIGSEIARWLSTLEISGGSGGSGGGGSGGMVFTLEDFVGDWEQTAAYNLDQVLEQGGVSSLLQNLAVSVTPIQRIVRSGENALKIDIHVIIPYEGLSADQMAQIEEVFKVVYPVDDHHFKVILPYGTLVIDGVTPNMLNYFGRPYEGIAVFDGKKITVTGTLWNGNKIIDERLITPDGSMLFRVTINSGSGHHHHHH

[5] = target: HaloTag[22-297](M2F + D53G + K140E)-12xGly/Ser-LgBiT-3xGly/Ser-6xHis (Rhodococcus rhodochrous, UniProt P0A3G2, A155T/A167V/A172T/A224E/C128F/C176G/D73G/D78G/E257K/H272N/K175M/K195N/L47V/L88M/N227D/S58T/T264A/Y273L/Y87F); assay: biochemical; type: binding
Chain of HaloTag[22-297](M2F + D53G + K140E)-12xGly/Ser-LgBiT-3xGly/Ser-6xHis (P0A3G2 23-290 with tags or gaps with the stated changes): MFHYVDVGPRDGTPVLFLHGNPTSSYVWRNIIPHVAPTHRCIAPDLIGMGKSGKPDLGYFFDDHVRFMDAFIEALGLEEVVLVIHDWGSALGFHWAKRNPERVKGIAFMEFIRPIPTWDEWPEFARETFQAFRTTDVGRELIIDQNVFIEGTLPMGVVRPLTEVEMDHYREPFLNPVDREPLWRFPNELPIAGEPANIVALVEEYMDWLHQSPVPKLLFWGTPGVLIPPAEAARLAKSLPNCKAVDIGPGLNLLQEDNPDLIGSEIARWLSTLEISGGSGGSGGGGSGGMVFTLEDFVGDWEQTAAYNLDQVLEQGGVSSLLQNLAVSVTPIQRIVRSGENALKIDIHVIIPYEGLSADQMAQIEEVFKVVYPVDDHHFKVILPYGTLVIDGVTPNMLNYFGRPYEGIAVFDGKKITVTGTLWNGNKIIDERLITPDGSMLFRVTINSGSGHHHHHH

[6] = target: HaloTag[22-297](M2F)-12×Gly/Ser-LgBiT-6×His (Rhodococcus rhodochrous, UniProt P0A3G2, A155T/A167V/A172T/A224E/C128F/C176G/D78G/E160K/E257K/H272N/K175M/K195N/L47V/L88M/N227D/S58T/T264A/Y273L/Y87F); type: biochemical; conditions: purified reporter, 30 minutes at 4° C., furimazine

Row | Compound | Kd [1] | Kd [2] | Kd [3] | Kd [4] | Kd [5] | Complementing the reporter to enhance luminescence signal [6]
1 | CC[C@H](C)[C@H](NC(=O)[C@H](CCCCN)NC(=O)[C@H](CCCCN)NC(=O)[C@H](Cc1ccccc1)NC(=O)[C@H](CC(C)C)NC(=O)[C@H](CCCNC(=N)N)NC(=O)[C@H](Cc1c[nH]c2ccccc12)NC(=O)CNC(=O)[C@H](CO)NC(=O)[C@@H](NC(=O)[C@H](CO)NC(=O)[C@@H](NC(=O)CNC(=O)[C@H](CO)NC(=O)CNC(=O)CNC(=O)CNC(=O)[C@H](CC(C)C)NC(=O)[C@@H](NC(=O)[C@H](CCC(=O)O)NC(=O)[C@@H](NC(=O)[C@H](Cc1ccc(O)cc1)NC(=O)[C@H](Cc1c[nH]cn1)NC(=O)[C@@H]1CCCN1C(=O)[C@H](CC(=O)O)NC(=O)[C@H](Cc1ccccc1)NC(=O)[C@@H]1CCCN1C(=O)[C@H](Cc1ccccc1)NC(=O)CNC(=O)[C@@H](NC(=O)[C@H](CCCCN)NC(=O)[C@@H](NC(=O)[C@H](CCC(=O)O)NC(=O)CCCC[C@@H]1SC[C@@H]2NC(=O)N[C@@H]21)[C@@H](C)CC)[C@@H](C)O)C(C)C)C(C)C)C(C)C)C(C)C)C(=O)N[C@@H](CO)C(=O)O [HaloTag[3-19](G3K)-4xGly/Ser-VSHiBiT] (Biotin-EIKTGFPFDPHYVEVLGGGSGVSVSGWRLFKKIS-OH) | 0.264 nM | 0.102 nM |  |  |  | 
2 | CC[C@H](C)[C@H](NC(=O)[C@H](CCC(=O)O)NC(=O)CCCC[C@@H]1SC[C@@H]2NC(=O)N[C@@H]21)C(=O)NCC(=O)N[C@H](C(=O)N[C@@H](CCCNC(=N)N)C(=O)N[C@@H](Cc1ccccc1)C(=O)N1CCC[C@H]1C(=O)N[C@@H](Cc1ccccc1)C(=O)N[C@@H](CC(=O)O)C(=O)N1CCC[C@H]1C(=O)N[C@@H](Cc1c[nH]cn1)C(=O)N[C@@H](Cc1ccc(O)cc1)C(=O)N[C@H](C(=O)N[C@@H](CCC(=O)O)C(=O)N[C@H](C(=O)N[C@@H](CC(C)C)C(=O)NCC(=O)NCC(=O)NCC(=O)N[C@@H](CO)C(=O)NCC(=O)N[C@H](C(=O)N[C@@H](CO)C(=O)N[C@H](C(=O)N[C@@H](CO)C(=O)NCC(=O)N[C@@H](Cc1c[nH]c2ccccc12)C(=O)N[C@@H](CCCNC(=N)N)C(=O)N[C@@H](CC(C)C)C(=O)N[C@@H](Cc1ccccc1)C(=O)N[C@@H](CCCCN)C(=O)N[C@@H](CCCCN)C(=O)N[C@H](C(=O)N[C@@H](CO)C(=O)O)[C@@H](C)CC)C(C)C)C(C)C)C(C)C)C(C)C)[C@@H](C)O [HaloTag[3-19](G5R)-4xGly/Ser-VSHiBiT] (Biotin-EIGTRFPFDPHYVEVLGGGSGVSVSGWRLFKKIS-OH) |  | 0.485 nM |  |  |  | 
3 | CC[C@H](C)[C@H](NC(=O)[C@H](CCCCN)NC(=O)[C@H](CCCCN)NC(=O)[C@H](Cc1ccccc1)NC(=O)[C@H](CC(C)C)NC(=O)[C@H](CCCNC(=N)N)NC(=O)[C@H](Cc1c[nH]c2ccccc12)NC(=O)CNC(=O)[C@H](CO)NC(=O)[C@@H](NC(=O)[C@H](CO)NC(=O)[C@@H](NC(=O)CNC(=O)[C@H](CO)NC(=O)CNC(=O)CNC(=O)CNC(=O)[C@H](CC(C)C)NC(=O)[C@@H](NC(=O)[C@H](CCC(=O)O)NC(=O)[C@@H](NC(=O)[C@H](Cc1ccc(O)cc1)NC(=O)[C@H](Cc1c[nH]cn1)NC(=O)[C@@H]1CCCN1C(=O)[C@H](CC(=O)O)NC(=O)[C@H](Cc1ccccc1)NC(=O)[C@@H]1CCCN1C(=O)[C@H](Cc1ccccc1)NC(=O)CNC(=O)[C@@H](NC(=O)CNC(=O)[C@H](CCCNC(=N)N)NC(=O)[C@H](CCC(=O)O)NC(=O)CCCC[C@@H]1SC[C@@H]2NC(=O)N[C@@H]21)[C@@H](C)O)C(C)C)C(C)C)C(C)C)C(C)C)C(=O)N[C@@H](CO)C(=O)O [HaloTag[3-19](I2R)-4xGly/Ser-VSHiBiT] (Biotin-ERGTGFPFDPHYVEVLGGGSGVSVSGWRLFKKIS-OH) | 0.684 nM and 0.466 nM | 0.509 nM | 1.61 nM | 0.669 nM | 0.576 nM | 
4 | KFNDQWNYRANFLKIRRVSVSGWRLFKKIS [Peptide 1061] |  |  |  |  |  | still functional
